This assay deals with Jurkat NF-kB reporter, luminescence. In words: Jurkat NF-kB signaling inhibitors – cell-based, luminescence, selectivity assay for B-cell receptor NF-kB inhibitor project, dose response (AID 489006).

The source made the active and inactive calls. No rule for the calls is given here. Where only a bound is given, the exact number is not on record here.

IC50 data for two compounds are collected here from PubChem BioAssay AID489006 (Sanford-Burnham Center for Chemical Genomics, 2010).

As a reminder, the IC50 is the concentration that inhibits the measured activity by half. Regarding `CCn1c(=O)cc(SCC(=O)N2CCN(C)CC2)c2ccccc21`, the IC50 was > 80 µM (inactive).
With `C=CCOc1ccc(NC(=O)C(=O)NCCCn2ccnc2)cc1` the figure was > 80 µM (inactive).
